Source: PubChem BioAssay AID1963870 (Molecular Pharmacology Branch, DTP, NCI, 2024)
pIC50: −log10 of the molar value. Values joined by “and” are separate entries in the source; they are usually repeats but may differ in a detail not shown here. Equal entries are not always repeated.

System: 292921-168-R-J2-PDC KRAS tumor spheroid viability
Assay: Anticancer human tumor 292921-168-R-J2-PDC patient-derived pancreatic carcinoma cell line growth inhibition [KRAS2]
Settings: spheroids with HUVEC and MSC; for viability, T/C: stronger effect = lower value
In short: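 Combination screen of spheroid viability in tumor-cell co-cultures with endothelial (HUVEC) and mesenchymal stem cell stroma. Each agent was tested in half-log dilutions, topping at clinical Cmax or at 10 microM without a known Cmax.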

[1] = curve of first compound, second compound 0.1 µM
[2] = curve of first compound, second compound 0.316 µM
[3] = curve of first compound, second compound 1 µM
[4] = curve of first compound, second compound 3.16 µM
[5] = second compound 0.1 µM, first compound 0.0316 µM
[6] = second compound 0.316 µM, first compound 0.0316 µM
[7] = second compound 1 µM, first compound 0.0316 µM
[8] = second compound 3.16 µM, first compound 0.0316 µM
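Further: drug exposure lasted seven days after spheroids formed for three days.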
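Wherever viability, T/C is given: percent of DMSO vehicle control viability which is 100%.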

`CC1OCC2(CCN(c3cnc(Sc4ccnc(N)c4Cl)c(N)n3)CC2)C1N` (configuration not stated) + C=CC(=O)N1CCN(c2nc(OCC3CCCN3C)nc3c2CCN(c2cccc4cccc(C)c24)C3)CC1CC#N was tested, and the pIC50 (curve of first compound, second compound 0.0316 µM) was 6.42, the pIC50 [1] was 6.64 and the pIC50 [2] was 7.02. For the same compound, the pIC50 [3] was > 7.50, the pIC50 [4] was > 7.50 and the viability, T/C (second compound 0.0316 µM, first compound 0.0316 µM) was 92.1%. The viability, T/C (second compound 0.0316 µM, first compound 0.1 µM) was 68%, the viability, T/C (second compound 0.0316 µM, first compound 0.316 µM) was 48.8% and the viability, T/C (second compound 0.0316 µM, first compound 1 µM) was 45.6%. The viability, T/C (second compound 0.0316 µM, first compound 3.16 µM) was 32.9%, the viability, T/C (second compound 0.0316 µM, first compound 10 µM) was 28.4% and the viability, T/C [5] was 82.9%. It also gave a viability, T/C (second compound 0.1 µM, first compound 0.1 µM) of 61.2%, a viability, T/C (second compound 0.1 µM, first compound 0.316 µM) of 43.8% and a viability, T/C (second compound 0.1 µM, first compound 1 µM) of 36.9%. The viability, T/C (second compound 0.1 µM, first compound 3.16 µM) was 37.6%, the viability, T/C (second compound 0.1 µM, first compound 10 µM) was 26.8% and the viability, T/C [6] was 66.1%. It also gave a viability, T/C (second compound 0.316 µM, first compound 0.1 µM) of 47.8%, a viability, T/C (second compound 0.316 µM, first compound 0.316 µM) of 37.4% and a viability, T/C (second compound 0.316 µM, first compound 1 µM) of 37.3%. It also gave a viability, T/C (second compound 0.316 µM, first compound 3.16 µM) of 27.5%, a viability, T/C (second compound 0.316 µM, first compound 10 µM) of 25.3% and a viability, T/C [7] of 20.5%. The viability, T/C (second compound 1 µM, first compound 0.1 µM) was 18.6%, the viability, T/C (second compound 1 µM, first compound 0.316 µM) was 16.4% and the viability, T/C (second compound 1 µM, first compound 1 µM) was 17.4%. The viability, T/C (second compound 1 µM, first compound 3.16 µM) was 16.1%, the viability, T/C (second compound 1 µM, first compound 10 µM) was 15.8% and the viability, T/C [8] was 0.11%. For the same compound, the viability, T/C (second compound 3.16 µM, first compound 0.1 µM) was 0.11%, the viability, T/C (second compound 3.16 µM, first compound 0.316 µM) was 0.11% and the viability, T/C (second compound 3.16 µM, first compound 1 µM) was 0.1%. For the same compound, the viability, T/C (second compound 3.16 µM, first compound 3.16 µM) was 0.11% and the viability, T/C (second compound 3.16 µM, first compound 10 µM) was 0.17%.

With `CC(=O)Nc1cccc(-n2c(=O)n(C3CC3)c(=O)c3c(Nc4ccc(I)cc4F)n(C)c(=O)c(C)c32)c1` + CNCc1ccccc1-c1csc(C(C)Nc2nc(C)nc3cc(OC)c(OC)cc23)c1 the pIC50 [1] was 9.68, the pIC50 [2] was 9.75 and the pIC50 [3] was 9.91. The pIC50 [4] was > 10.00, the pIC50 (curve of first compound, second compound 10 µM) was > 10.00 and the viability, T/C (second compound 0.1 µM, first compound 0.0001 µM) was 66%. It also gave a viability, T/C (second compound 0.1 µM, first compound 0.000316 µM) of 41.9%, a viability, T/C (second compound 0.1 µM, first compound 0.001 µM) of 20.2% and a viability, T/C (second compound 0.1 µM, first compound 0.00316 µM) of 17.5%. The viability, T/C (second compound 0.1 µM, first compound 0.01 µM) was 12%, the viability, T/C [5] was 8.12% and the viability, T/C (second compound 0.316 µM, first compound 0.0001 µM) was 64.5%. For the same compound, the viability, T/C (second compound 0.316 µM, first compound 0.000316 µM) was 35.3%, the viability, T/C (second compound 0.316 µM, first compound 0.001 µM) was 21.8% and the viability, T/C (second compound 0.316 µM, first compound 0.00316 µM) was 16.3%. The viability, T/C (second compound 0.316 µM, first compound 0.01 µM) was 12.3%, the viability, T/C [6] was 8.64% and the viability, T/C (second compound 1 µM, first compound 0.0001 µM) was 55%. For the same compound, the viability, T/C (second compound 1 µM, first compound 0.000316 µM) was 28.2%, the viability, T/C (second compound 1 µM, first compound 0.001 µM) was 17.9% and the viability, T/C (second compound 1 µM, first compound 0.00316 µM) was 13.7%. It also gave a viability, T/C (second compound 1 µM, first compound 0.01 µM) of 10.4%, a viability, T/C [7] of 8.11% and a viability, T/C (second compound 3.16 µM, first compound 0.0001 µM) of 0.21%. It also gave a viability, T/C (second compound 3.16 µM, first compound 0.000316 µM) of 0.07%, a viability, T/C (second compound 3.16 µM, first compound 0.001 µM) of 0.05% and a viability, T/C (second compound 3.16 µM, first compound 0.00316 µM) of 0.04%. It also gave a viability, T/C (second compound 3.16 µM, first compound 0.01 µM) of 0.04%, a viability, T/C [8] of 0.15% and a viability, T/C (second compound 10 µM, first compound 0.0001 µM) of 0.11%. It also gave a viability, T/C (second compound 10 µM, first compound 0.000316 µM) of 0.11%, a viability, T/C (second compound 10 µM, first compound 0.001 µM) of 0.11% and a viability, T/C (second compound 10 µM, first compound 0.00316 µM) of 0.12%. It also gave a viability, T/C (second compound 10 µM, first compound 0.01 µM) of 0.12% and a viability, T/C (second compound 10 µM, first compound 0.0316 µM) of 0.2%.

With `CCNC(=O)CC1N=C(c2ccc(Cl)cc2)c2cc(OC)ccc2-n2c(C)nnc21` (configuration not stated) the viability, T/C (compound 0.0316 µM) was 97.6% and 105% (2×), the viability, T/C (compound 0.1 µM) was 101% and 90.5% and 99.3% and the viability, T/C (compound 0.316 µM) was 68.9% and 65.5% and 77.4%. For the same compound, the viability, T/C (compound 1 µM) was 61.3% and 61.7% and 65.3%, the viability, T/C (compound 3.16 µM) was 55.7% and 53.3% and 49.1% and the viability, T/C (compound 10 µM) was 47.1% and 38.7% and 48.1%. For the same compound, the pIC50 (curve of compound) was < 5.00 and 5.53 and 5.32.
